Reference: ChEMBL document CHEMBL4118068 (Eur J Med Chem, 2017)

How the values were obtained:
[1] = target: T1, Muscarinic acetylcholine receptor M1 (Homo sapiens, UniProt P11229); assay: Displacement of [3H]NMS from recombinant human muscarinic M1 receptor expressed in CHOK1 cell membranes after 120 mins by scintillation counting method
T1 sequence (P11229 whole entry): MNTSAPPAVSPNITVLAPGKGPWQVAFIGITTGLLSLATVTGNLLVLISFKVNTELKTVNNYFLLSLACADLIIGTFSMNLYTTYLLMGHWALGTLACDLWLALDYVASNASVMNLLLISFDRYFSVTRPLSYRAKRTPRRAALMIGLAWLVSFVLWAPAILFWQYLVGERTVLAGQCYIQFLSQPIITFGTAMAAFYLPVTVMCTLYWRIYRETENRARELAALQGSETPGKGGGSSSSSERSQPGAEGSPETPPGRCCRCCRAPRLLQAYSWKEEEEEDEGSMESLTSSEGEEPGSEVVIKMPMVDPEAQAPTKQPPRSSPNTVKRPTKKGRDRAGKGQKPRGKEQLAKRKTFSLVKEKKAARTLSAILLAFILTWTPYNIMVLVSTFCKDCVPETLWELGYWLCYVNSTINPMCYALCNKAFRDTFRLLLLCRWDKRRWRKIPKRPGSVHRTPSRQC

[2] = target: T2, Muscarinic acetylcholine receptor M2 (Homo sapiens, UniProt P08172); assay: Displacement of [3H]NMS from recombinant human muscarinic M2 receptor expressed in CHOK1 cell membranes after 120 mins by scintillation counting method
T2 sequence (P08172 whole entry): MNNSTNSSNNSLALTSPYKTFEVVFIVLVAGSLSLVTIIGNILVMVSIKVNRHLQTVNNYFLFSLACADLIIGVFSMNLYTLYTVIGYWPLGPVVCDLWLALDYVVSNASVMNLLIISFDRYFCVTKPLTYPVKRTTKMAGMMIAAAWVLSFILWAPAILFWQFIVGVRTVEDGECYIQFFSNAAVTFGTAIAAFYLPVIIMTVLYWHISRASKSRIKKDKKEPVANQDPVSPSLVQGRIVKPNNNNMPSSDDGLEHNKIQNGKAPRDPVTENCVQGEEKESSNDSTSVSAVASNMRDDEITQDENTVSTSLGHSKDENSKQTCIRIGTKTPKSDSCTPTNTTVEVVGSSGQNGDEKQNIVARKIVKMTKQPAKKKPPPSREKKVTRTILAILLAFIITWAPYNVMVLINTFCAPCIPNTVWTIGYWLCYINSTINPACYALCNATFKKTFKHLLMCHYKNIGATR

[3] = target: Muscarinic acetylcholine receptor M3 (Homo sapiens, UniProt P20309); assay: Displacement of [3H]NMS from recombinant human muscarinic M3 receptor expressed in CHOK1 cell membranes after 120 mins by scintillation counting method
[4] = target: T3, Muscarinic acetylcholine receptor M4 (Homo sapiens, UniProt P08173); assay: Displacement of [3H]NMS from recombinant human muscarinic M4 receptor expressed in CHOK1 cell membranes after 120 mins by scintillation counting method
T3 sequence (P08173 whole entry): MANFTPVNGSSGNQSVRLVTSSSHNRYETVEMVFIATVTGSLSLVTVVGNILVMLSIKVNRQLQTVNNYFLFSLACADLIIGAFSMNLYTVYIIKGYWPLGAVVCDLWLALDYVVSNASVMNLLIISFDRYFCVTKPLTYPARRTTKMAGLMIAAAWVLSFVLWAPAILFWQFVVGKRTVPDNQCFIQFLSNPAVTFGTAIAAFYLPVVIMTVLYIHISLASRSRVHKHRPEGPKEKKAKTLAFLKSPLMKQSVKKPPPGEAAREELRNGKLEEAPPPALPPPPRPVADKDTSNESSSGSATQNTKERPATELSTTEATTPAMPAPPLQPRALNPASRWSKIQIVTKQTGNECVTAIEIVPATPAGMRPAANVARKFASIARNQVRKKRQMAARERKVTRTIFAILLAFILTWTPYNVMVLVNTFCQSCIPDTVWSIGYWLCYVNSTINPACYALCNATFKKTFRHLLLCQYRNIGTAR

[5] = target: T4, Muscarinic acetylcholine receptor M5 (Homo sapiens, UniProt P08912); assay: Displacement of [3H]NMS from recombinant human muscarinic M5 receptor expressed in CHOK1 cell membranes after 120 mins by scintillation counting method
T4 sequence (P08912 whole entry): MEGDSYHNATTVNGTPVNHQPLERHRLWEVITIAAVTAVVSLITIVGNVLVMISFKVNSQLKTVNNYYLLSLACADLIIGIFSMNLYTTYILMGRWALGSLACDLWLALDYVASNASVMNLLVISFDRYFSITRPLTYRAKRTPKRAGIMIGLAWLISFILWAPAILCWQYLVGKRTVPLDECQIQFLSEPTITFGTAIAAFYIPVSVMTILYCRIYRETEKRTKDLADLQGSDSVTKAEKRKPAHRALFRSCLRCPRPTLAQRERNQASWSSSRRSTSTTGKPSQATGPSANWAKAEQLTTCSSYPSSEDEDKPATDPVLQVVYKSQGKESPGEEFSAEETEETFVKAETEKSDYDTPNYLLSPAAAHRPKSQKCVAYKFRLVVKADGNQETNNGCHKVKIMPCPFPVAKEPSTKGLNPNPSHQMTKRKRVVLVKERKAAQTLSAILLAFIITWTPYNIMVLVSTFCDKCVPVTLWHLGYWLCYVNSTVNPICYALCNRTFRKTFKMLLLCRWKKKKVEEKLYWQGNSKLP

Chain of Muscarinic acetylcholine receptor M3 (P20309 whole entry): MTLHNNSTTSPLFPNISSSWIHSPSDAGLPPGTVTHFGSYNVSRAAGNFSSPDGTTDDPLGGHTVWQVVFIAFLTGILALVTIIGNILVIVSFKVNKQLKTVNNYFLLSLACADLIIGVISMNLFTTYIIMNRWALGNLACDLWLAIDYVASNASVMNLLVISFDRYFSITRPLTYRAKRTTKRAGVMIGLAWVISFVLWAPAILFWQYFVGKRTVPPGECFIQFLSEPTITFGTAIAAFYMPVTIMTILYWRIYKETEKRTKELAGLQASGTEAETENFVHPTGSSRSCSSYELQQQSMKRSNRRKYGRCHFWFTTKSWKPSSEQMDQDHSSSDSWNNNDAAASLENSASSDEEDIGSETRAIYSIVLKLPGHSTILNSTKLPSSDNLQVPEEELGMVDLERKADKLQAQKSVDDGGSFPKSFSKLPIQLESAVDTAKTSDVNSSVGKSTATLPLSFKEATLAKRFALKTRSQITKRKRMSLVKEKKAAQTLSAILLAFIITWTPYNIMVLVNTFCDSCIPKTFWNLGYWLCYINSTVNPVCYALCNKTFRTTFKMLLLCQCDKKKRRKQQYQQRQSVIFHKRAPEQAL

| Compound | Ki [1] | Ki [2] | Ki [3] | Ki [4] | Ki [5] |
| --- | --- | --- | --- | --- | --- |
| c1ccc(C2(c3ccccc3)COC[C@@H](CO[C@@H]3CN4CCC3CC4)O2)cc1 | 55 nM | 61.7 nM | 105 nM | 100 nM | 112 nM |
| c1ccc(C2(c3ccccc3)COC[C@H](CO[C@@H]3CN4CCC3CC4)O2)cc1 | 4.57 nM | 33.1 nM | 20 nM | 11.5 nM | 19.1 nM |
| c1ccc(C2(c3ccccc3)COC[C@H](CO[C@H]3CN4CCC3CC4)O2)cc1 | 8.91 nM | 57.5 nM | 43.7 nM | 22.9 nM | 45.7 nM |
| c1ccc(C2(c3ccccc3)COC[C@@H](CO[C@H]3CN4CCC3CC4)O2)cc1 | 162 nM | 355 nM | 617 nM | 437 nM | 631 nM |
| O=C(O[C@H]1CN2CCC1CC2)N1CCc2ccccc2[C@@H]1c1ccccc1 [SOLIFENACIN] | 51.3 nM | 120 nM | 13.2 nM | 129 nM | 43.7 nM |
